Results: PMC11233931, “Remodeling tumor‐associated macrophage for anti‐cancer effects by rational design of irreversible inhibition of mitogen‐activated protein kinase‐activated protein kinase 2” (MedComm, 2024)

How the values were obtained:
Test in all cases: Eurofins kinase selectivity profile against 380 other human recombinant kinases (Table S2)
Assay type in all cases: biochemical
[1] = target: T1, 380 human recombinant protein kinases (Homo sapiens, UniProt Q15208); conditions: NDR1(h), read-out: Inhibition rate
T1 construct: purchased Eurofins (Celle Lévescault)
T1 sequence (Q15208 whole entry): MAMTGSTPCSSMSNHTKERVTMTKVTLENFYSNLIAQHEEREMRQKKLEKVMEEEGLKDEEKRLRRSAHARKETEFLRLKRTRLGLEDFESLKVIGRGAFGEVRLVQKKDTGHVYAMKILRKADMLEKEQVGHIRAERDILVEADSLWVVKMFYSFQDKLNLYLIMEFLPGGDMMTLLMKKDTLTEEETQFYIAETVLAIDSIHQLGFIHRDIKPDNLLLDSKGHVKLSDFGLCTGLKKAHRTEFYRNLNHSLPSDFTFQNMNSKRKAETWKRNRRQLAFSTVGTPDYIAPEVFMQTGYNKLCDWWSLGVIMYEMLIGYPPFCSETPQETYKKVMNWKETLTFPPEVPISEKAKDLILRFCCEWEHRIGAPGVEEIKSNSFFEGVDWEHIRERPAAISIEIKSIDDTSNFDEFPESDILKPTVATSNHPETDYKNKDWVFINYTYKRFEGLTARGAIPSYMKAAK
Method in brief: (§1)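 To gauge specificity for MK2, the compound is profiled externally at various concentrations on recombinant human kinases, 380 in total.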

[2] = target: T2, 380 human recombinant protein kinases (Homo sapiens, UniProt Q9BZL6); conditions: PKD2(h), read-out: Inhibition rate
T2 construct: purchased Eurofins (Celle Lévescault)
T2 sequence (Q9BZL6 1-878): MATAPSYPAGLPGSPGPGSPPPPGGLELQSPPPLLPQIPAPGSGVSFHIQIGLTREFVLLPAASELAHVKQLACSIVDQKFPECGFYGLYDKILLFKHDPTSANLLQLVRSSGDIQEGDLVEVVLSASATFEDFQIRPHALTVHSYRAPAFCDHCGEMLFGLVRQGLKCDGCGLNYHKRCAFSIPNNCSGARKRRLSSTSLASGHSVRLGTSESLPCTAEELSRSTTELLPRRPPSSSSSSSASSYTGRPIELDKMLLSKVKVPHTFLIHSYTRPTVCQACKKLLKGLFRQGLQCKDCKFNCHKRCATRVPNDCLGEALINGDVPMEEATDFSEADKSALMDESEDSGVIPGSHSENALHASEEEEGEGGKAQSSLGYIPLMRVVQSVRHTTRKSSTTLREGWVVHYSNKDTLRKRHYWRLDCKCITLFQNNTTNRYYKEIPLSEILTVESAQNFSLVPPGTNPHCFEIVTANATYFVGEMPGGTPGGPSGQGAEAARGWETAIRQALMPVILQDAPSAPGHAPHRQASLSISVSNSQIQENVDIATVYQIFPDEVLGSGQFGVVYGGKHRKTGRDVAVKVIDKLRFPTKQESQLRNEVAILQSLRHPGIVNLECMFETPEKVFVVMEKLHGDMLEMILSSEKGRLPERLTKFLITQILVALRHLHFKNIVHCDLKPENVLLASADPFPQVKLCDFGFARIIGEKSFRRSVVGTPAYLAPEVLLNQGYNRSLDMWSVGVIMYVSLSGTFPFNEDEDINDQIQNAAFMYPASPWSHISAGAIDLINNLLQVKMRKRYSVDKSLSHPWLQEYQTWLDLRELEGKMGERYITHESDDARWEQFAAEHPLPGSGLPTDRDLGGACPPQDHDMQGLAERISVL
Method in brief: as §1

[3] = target: T3, 380 human recombinant protein kinases (Homo sapiens, UniProt O14578); conditions: CRIK(h), read-out: Inhibition rate
T3 construct: purchased Eurofins (Celle Lévescault)
T3 sequence (O14578 whole entry): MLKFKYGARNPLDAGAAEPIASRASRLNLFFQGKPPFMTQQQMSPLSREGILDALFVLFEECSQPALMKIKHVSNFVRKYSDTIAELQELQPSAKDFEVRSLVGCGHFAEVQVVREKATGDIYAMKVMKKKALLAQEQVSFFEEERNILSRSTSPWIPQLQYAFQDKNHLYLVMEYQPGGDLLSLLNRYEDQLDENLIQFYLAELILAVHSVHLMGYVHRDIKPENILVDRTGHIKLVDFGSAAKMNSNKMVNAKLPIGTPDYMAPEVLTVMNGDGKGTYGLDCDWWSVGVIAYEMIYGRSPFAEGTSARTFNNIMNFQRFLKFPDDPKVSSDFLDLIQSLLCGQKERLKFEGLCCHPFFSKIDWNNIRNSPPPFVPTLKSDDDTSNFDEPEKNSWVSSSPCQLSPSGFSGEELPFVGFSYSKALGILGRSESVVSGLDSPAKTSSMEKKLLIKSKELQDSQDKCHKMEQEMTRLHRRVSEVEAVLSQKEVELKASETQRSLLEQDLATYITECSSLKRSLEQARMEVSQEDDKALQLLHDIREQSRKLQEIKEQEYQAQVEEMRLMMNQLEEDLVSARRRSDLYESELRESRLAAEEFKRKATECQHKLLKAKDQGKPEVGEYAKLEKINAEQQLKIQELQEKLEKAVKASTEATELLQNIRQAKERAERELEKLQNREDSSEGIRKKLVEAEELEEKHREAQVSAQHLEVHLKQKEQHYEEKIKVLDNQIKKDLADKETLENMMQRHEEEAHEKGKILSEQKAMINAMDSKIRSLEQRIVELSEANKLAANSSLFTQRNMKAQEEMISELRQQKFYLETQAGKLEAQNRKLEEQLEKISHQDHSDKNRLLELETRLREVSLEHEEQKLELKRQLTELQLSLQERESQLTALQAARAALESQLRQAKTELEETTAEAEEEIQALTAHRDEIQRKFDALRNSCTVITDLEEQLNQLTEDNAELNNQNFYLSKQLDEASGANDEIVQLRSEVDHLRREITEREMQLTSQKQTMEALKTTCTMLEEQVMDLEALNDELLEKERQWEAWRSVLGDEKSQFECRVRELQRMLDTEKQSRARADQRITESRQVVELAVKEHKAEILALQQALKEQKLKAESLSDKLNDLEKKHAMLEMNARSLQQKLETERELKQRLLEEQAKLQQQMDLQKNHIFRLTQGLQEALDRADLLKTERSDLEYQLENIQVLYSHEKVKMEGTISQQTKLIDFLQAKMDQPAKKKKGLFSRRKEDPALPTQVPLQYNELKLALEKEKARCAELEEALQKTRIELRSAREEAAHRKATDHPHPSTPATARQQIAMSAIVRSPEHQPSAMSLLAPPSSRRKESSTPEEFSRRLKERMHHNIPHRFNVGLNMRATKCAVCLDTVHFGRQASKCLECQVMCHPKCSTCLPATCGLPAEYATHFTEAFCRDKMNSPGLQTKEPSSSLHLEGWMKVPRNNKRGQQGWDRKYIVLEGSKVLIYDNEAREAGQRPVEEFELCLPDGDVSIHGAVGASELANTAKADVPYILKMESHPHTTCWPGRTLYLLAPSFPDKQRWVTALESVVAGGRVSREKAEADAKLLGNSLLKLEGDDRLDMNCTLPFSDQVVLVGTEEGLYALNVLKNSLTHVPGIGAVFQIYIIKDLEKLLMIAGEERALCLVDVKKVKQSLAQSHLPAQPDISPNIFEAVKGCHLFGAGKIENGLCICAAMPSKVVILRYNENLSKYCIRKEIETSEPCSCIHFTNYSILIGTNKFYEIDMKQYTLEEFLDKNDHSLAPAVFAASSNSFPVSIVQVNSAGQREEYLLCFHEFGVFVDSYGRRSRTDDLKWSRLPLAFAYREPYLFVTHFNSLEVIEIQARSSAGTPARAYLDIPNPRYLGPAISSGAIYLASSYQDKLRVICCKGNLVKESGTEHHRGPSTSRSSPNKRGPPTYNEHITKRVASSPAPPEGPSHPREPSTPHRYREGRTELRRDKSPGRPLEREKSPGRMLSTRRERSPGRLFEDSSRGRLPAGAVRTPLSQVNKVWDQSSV
Method in brief: as §1

[4] = target: T4, 380 human recombinant protein kinases (Homo sapiens, UniProt Q9P289); conditions: MST4(h), read-out: Inhibition rate
T4 construct: purchased Eurofins (Celle Lévescault)
T4 sequence (Q9P289 whole entry): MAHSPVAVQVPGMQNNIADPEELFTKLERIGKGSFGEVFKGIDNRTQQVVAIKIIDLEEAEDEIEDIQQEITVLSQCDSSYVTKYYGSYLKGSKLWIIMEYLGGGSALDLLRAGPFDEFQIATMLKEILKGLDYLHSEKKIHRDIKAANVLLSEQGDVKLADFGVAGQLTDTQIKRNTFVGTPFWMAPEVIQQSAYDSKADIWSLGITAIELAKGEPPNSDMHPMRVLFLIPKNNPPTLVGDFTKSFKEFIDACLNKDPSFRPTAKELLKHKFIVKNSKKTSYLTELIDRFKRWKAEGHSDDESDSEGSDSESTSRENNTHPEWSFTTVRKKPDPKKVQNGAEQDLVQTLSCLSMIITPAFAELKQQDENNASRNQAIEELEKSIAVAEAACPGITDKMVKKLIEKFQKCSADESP
Method in brief: as §1

[5] = target: T5, 380 human recombinant protein kinases (Homo sapiens, UniProt Q9H2G2); conditions: SLK(h), read-out: Inhibition rate (%)
T5 construct: purchased Eurofins (Celle Lévescault)
T5 sequence (Q9H2G2 whole entry): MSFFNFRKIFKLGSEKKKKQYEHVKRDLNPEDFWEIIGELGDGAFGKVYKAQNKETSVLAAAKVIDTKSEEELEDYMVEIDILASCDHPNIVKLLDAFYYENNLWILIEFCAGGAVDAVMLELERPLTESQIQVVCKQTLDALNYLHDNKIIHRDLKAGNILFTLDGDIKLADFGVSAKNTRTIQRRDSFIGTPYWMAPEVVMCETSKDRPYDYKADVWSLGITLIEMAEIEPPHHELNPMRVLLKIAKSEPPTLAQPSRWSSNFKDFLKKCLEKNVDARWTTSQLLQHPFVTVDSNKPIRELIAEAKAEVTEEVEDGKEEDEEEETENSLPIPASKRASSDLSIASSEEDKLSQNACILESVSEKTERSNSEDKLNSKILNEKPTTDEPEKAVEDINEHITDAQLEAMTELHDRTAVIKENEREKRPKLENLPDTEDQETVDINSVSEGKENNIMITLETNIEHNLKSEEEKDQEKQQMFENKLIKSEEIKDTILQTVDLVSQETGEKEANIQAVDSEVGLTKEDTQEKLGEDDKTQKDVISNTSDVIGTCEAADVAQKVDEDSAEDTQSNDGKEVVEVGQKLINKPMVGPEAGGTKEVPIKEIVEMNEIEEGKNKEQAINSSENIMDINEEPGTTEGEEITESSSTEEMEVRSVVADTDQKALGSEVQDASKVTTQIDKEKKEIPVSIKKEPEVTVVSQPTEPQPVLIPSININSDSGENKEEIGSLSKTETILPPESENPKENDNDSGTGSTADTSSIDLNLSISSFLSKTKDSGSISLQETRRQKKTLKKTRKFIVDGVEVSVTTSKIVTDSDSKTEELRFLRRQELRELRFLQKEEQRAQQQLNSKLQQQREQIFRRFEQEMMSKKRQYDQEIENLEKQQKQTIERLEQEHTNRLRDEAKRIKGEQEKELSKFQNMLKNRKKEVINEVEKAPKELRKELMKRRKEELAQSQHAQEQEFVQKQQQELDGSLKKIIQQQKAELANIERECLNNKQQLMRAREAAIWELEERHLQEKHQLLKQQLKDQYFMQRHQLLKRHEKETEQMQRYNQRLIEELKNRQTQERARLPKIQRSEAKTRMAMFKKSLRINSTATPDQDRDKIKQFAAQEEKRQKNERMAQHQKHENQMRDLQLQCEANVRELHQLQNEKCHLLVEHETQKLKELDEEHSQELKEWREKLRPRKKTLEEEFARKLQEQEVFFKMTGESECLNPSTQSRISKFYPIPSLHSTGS
Method in brief: as §1

[6] = target: T6, 380 human recombinant protein kinases (Homo sapiens, UniProt Q9NRH2); conditions: SNRK(h), read-out: Inhibition rate (%)
T6 construct: purchased Eurofins (Celle Lévescault)
T6 sequence (Q9NRH2 1-765): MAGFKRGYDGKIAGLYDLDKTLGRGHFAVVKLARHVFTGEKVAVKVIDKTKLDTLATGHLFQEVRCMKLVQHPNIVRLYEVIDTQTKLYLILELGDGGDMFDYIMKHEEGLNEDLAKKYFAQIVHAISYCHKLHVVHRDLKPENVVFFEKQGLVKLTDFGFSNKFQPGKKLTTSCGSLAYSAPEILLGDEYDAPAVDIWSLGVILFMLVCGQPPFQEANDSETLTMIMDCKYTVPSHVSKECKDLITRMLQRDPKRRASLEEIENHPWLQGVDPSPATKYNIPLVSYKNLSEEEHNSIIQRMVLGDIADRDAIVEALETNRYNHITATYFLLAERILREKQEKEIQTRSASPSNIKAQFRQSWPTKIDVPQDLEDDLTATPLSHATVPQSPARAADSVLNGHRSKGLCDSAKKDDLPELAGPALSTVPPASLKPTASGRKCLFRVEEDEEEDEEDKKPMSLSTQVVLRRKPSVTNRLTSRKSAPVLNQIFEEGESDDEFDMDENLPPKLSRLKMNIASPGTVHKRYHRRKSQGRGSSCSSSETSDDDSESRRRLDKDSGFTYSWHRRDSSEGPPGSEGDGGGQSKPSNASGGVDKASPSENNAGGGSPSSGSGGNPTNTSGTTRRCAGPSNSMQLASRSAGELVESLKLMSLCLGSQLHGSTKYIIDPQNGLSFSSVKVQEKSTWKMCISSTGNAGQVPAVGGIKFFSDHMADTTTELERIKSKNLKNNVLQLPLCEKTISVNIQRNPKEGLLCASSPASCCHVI
Method in brief: as §1

[7] = target: T7, 380 human recombinant protein kinases (Homo sapiens, UniProt P29317); conditions: EphA2(h), read-out: Inhibition rate
T7 construct: purchased Eurofins (Celle Lévescault)
T7 sequence (P29317 24-976): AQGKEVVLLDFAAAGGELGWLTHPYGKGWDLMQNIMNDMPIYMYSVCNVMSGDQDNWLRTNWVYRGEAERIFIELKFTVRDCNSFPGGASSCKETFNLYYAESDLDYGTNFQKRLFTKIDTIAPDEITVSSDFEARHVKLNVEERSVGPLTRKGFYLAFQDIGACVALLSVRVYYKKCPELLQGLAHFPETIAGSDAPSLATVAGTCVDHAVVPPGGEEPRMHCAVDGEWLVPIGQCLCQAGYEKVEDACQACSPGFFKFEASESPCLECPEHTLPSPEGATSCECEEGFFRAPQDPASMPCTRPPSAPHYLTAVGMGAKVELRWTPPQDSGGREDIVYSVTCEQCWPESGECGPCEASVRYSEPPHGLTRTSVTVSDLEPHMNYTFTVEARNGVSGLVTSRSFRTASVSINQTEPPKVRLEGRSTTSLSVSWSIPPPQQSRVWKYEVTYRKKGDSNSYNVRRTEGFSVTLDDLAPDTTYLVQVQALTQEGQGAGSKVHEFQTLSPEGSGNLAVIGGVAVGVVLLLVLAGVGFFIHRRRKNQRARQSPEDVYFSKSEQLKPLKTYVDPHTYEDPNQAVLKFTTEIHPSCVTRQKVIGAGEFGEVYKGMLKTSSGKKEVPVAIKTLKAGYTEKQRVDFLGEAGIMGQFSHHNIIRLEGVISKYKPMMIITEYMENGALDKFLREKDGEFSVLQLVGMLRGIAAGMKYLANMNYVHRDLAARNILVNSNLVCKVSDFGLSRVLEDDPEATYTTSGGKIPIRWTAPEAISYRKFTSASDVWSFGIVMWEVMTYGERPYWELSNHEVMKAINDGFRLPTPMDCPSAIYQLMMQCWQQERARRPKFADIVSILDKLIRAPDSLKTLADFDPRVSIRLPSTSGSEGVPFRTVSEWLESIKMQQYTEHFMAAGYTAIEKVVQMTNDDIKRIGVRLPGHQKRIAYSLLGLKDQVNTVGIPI
Method in brief: as §1

[8] = target: T8, 380 human recombinant protein kinases (Homo sapiens, UniProt P09619); conditions: PDGFRβ(h), read-out: Inhibition rate
T8 construct: purchased Eurofins (Celle Lévescault)
Method in brief: as §1

[9] = target: T9, 380 human recombinant protein kinases (Homo sapiens, UniProt P04626); conditions: ErbB2(h), read-out: Inhibition rate
T9 construct: purchased Eurofins (Celle Lévescault)
Method in brief: as §1

Work on `C=CC(=O)Nc1cc(-c2cc(-c3cc4c([nH]3)CCNC4=O)ccn2)ccc1OC(F)(F)F` [compound 11] yielded an inhibition at 0.01 µM ([1]; 10 nM) of -17%, an inhibition at 0.1 µM ([1]; 100 nM) of -14% and an inhibition at 1 µM ([1]; 1000 nM) of -12%. For the same molecule, the inhibition at 0.01 µM ([2]; 10 nM) was 0%, the inhibition at 0.1 µM ([2]; 100 nM) was 8% and the inhibition at 1 µM ([2]; 1000 nM) was 47%. For the same molecule, the inhibition at 0.01 µM ([3]; 10 nM) was -8%, the inhibition at 0.1 µM ([3]; 100 nM) was 6% and the inhibition at 1 µM ([3]; 1000 nM) was 29%. For the same molecule, the inhibition at 0.01 µM ([4]; 10 nM) was -5%, the inhibition at 0.1 µM ([4]; 100 nM) was -8% and the inhibition at 1 µM ([4]; 1000 nM) was 2%. The inhibition at 0.01 µM ([5]; 10 nM) was 1%, the inhibition at 0.1 µM ([5]; 100 nM) was 4% and the inhibition at 1 µM ([5]; 1000 nM) was 4%. The inhibition at 0.01 µM ([6]; 10 nM) was 4%, the inhibition at 0.1 µM ([6]; 100 nM) was 4% and the inhibition at 1 µM ([6]; 1000 nM) was 9%. It also gave an inhibition at 0.01 µM ([7]; 10 nM) of 0%, an inhibition at 0.1 µM ([7]; 100 nM) of 3% and an inhibition at 1 µM ([7]; 1000 nM) of -2%. It also gave an inhibition at 0.01 µM ([8]; 10 nM) of 0%, an inhibition at 0.1 µM ([8]; 100 nM) of -16% and an inhibition at 1 µM ([8]; 1000 nM) of -11%. For the same molecule, the inhibition at 0.01 µM ([9]; 10 nM) was 10%, the inhibition at 0.1 µM ([9]; 100 nM) was 5% and the inhibition at 1 µM ([9]; 1000 nM) was 1%.
